Data published in US20030092735A1, “Use of substance P antagonists for the treatment of chronic fatigue syndrome and/or fibromyalgia and use of NK-1 receptor antagonists for the treatment of chronic fatigue syndrome” (priority 1998, published 2003).

What was measured:
[1] = system: Patients with chronic fatigue syndrome; assay: CFS Clinical Study (randomized, double-blind, placebo-controlled); assay type: in vivo, human; settings: doses of 10 to 20 mg/day, myalgias, cognitive impairment, baseline vs end of treatment
Excerpt: Patients with chronic fatigue syndrome according to the CDC (Centre for Disease Control) definition (G. P. Holmes et al.: A working case definition. Ann. intern. Med; 108 (1988), 387-389) are included in the trial. Other recognised definitions may be used to identify patients with chronic fatigue syndrome as appropriate. Both male and female patients are eligible, provided they are over 18 years of age and under 65 years of age. The main exclusion criteria comprise pregnant and lactating women; in addition patients suffering from other diseases that cause significant fatigue as well as patients who suffer from active infections are excluded. […]
The study is in the form of a prospective, randomized, double-blind, placebo-controlled, parallel-group study using different doses of a Preferred A Compound of the Invention, (e.g. (2R,4S)-N-[1-(3,5-bistrifluoromethylbenzoyl)-2-(4-chlorobenzyl)-piperidin-4-yl-quinolin-4-carboxamide). […] Adverse events are assessed during the active treatment period. […]
Other parameters which are evaluated include cognitive impairment (to be measured by visual analog scale [VAS]) and the assessment of myalgias. […] The assessment of each body region is done by the patients themselves; the total score is calculated as the sum of the regional scores. […]

[2] = system: patients who meet the ACR criteria for primary fibromyalgia; assay: Fibromyalgia Clinical Study (randomized, double-blind, placebo-controlled); assay type: in vivo, human; settings: doses of 10 to 20 mg/day; response = 35% or higher reduction in individual pain score, baseline versus end of treatment
Excerpt: The study is in the form of a prospective, randomized, double-blind, placebo-controlled, parallel-group study using different doses of Compound of the Invention. Male and female patients (over 18 years) who meet the ACR (American College of Rheumatology) cirteria for primary fibromyalgia are included in this trial. The main exclusion criteria include pregnant and lactating woman, patients suffering from other inflammatory rheumatological diseases (such as rheumatoid arthritis or collagenoses), severe neuropathies, clinically manifest endocrinopathies, bone diseases, severe cardial, renal or hepatic impairment and acute or chronic infections.
Patients are randomly assigned to one of five study arms, placebo, 1 mg, 10 mg, 20 mg and 40 mg of test compound. The duration of treatment is two weeks. Before, on day 7 and at the end of the treatment phase, a physical examination, pain assessment and blood testing are performed. […] Adverse events are assessed during the active treatment period.
To evaluate pain, the pain score, a visual analogue scale and clinical examination of tenderpoints is used. […] The assessment of each body region is done by the patients themselves; the total score is calculated as the sum of the regional scores. […]

[3] = system: patients who meet the ACR criteria for primary fibromyalgia; settings: Amitryptilin regarded as an effective treatment in fibromyalgia; comparator value; cited from earlier work

Compound	reduction in the score for one or more symptoms of CFS [1]	response rates for fibromyalgia treatment [2]	response rates in fibromyalgia (of patients) [3]
O=C(N[C@H]1CCN(C(=O)c2cc(C(F)(F)F)cc(C(F)(F)F)c2)[C@H](Cc2ccc(Cl)cc2)C1)c1ccnc2ccccc12 [(2R,4S)-N-[1-(3,5-bistrifluoromethylbenzoyl)-2-(4-chlorobenzyl)-piperidin-4-yl-quinolin-4-carboxamide]	≥ 20%	at least equivalent to or comparable with those achieved with Amitryptilin	
CN(C)CCC=C1c2ccccc2CCc2ccccc21 [Amitryptilin]			20 to 30%
